Values of other authors, collected in patent publication US11318122B2, “Pharmaceutical combination and its use for treating synucleinopathties” (CHASE THERAPEUTICS CORPORATION, priority 2017, dated 2022).

Columns and labels:
[1] = 5 mg/day of pramipexole
synuclein = synuclein (Homo sapiens, UniProt P37840)
[2] = biological target: human wild-type alpha-synuclein (Homo sapiens, UniProt P37840); settings: by H2O2 plus cytochrome c
[3] = biological target: alpha-synuclein in human neuroblastoma SH5Y cells (Homo sapiens, UniProt P37840)
[4] = doses approved for the treatment of motor symptoms of PD; 535 PD patients
[5] = test system: 6-OHDA (6-hydroxydopamine)-induced damage; settings: toxin-induced model of PD
MPTP-induced damage = settings: toxin-induced model of PD
[6] = test system: extracellular concentrations of norepinephrine and dopamine; settings: large doses, rodents, acute systemic administration

SMILES | nausea [1] | vomiting [1] | patients not able to complete the study ([1]; presumably because of intolerable GI adverse events) | synuclein oligomer formation in vitro (synuclein) | toxic effects of rotenone on dopaminergic neurons (dopaminergic neurons; mouse PD model) | immunoreactivity for alpha-synuclein (dopaminergic neurons; rotenone mouse PD model) | in vitro oligomerization of human wild-type alpha-synuclein [2] | aggregation of alpha-synuclein [3] | neuroprotective (disease modifying) activity [4] | protection against 6-OHDA-induced damage [5] | protection against MPTP-induced damage (MPTP-induced damage) | extracellular concentrations of norepinephrine and dopamine [6]
CCCN[C@H]1CCc2nc(N)sc2C1 [pramipexole, (S)-6-propylamino-4,5,6,7-tetrahydro-1,3-benzothiazole-2-amine] | 76 % of patients | 39 % of patients | 36 % of patients | diminishes synuclein oligomer formation | inhibits the toxic effects of rotenone | reducing immunoreactivity | decreases the in vitro oligomerization | inhibit the aggregation | failed to evidence neuroprotective (i.e., disease modifying) activity | – | – | –
CNCCC(Oc1ccc(C(F)(F)F)cc1)c1ccccc1 (stereo not drawn) [fluoxetine, 1-methylamino-3-phenyl-3-[4-(trifluoromethyl)phenoxy]propane] | – | – | – | – | – | – | – | – | – | can protect | can protect | significant increase
